Experimental data: patent publication US20220023389A1, “VASODILATORS FOR USE IN THE TREATMENT OF A RETINAL ISCHEMIC DISORDER” (University of Copenhagen, priority 2018, published 2022)
Where no end group is shown, it is not given here.

How the values were obtained:
[1] = biological target: calcitonin receptor-like receptor (CLR) in complex with receptor activity-modifying protein 1 (RAMP1) (Homo sapiens, UniProt O60894+Q16602); conditions: removal of residues 1-7; cited from earlier work
[2] = tested on: retina (photoreceptors, bipolar cells); assay: Electroretinography (scotopic A-wave and B-wave amplitude) after ET-1 induced retinal ischemia; assay type: in vivo, Sprague dawley rat; conditions: day 21, ET-1 induced ischemia right eye (5 μL 500 μM), ET-1 alone/vehicle
Experimental: Rats were anesthetized with 90 mg/kg ketamine & 10 mg/kg xylazine (i.p). Oxybuprocain 0.4% Anesthetic was applied topically to the eyes.
Guided under a stereoscopic microscope to avoid lens and retinal injury, 5 μl intravitreal injection of 500 uM ET-1 (Phoenix Pharmaceuticals, Inc.) was performed using a digital controller and UltraMicroPump III, with NanoFil 10 μl syringe (WPI) connected to intraoucular injector with a 34 g bevelled needle.
Injection was performed through the sclera, inserted approximately 1 mm posterior to the corneal limbus at a 45° angle to avoid contact with the lens capsule and direct the contents, 1.5 mm into the vitreous chamber, in the right eye (FIG. 1). The needle remained in the vitreous cavity for 30 seconds after injection and was then gently withdrawn. […]
Day 0—ET-1 is administered intravitreally alone or in combination with the current invention. Fundus is recorded before and after injection. […]
After overnight dark adaptation for at least 12 hours, the animals were anesthetized with 90 mg/kg ketamine and 10 mg/kg xylazine delivered by a single intraperitoneal injection. […] ERGs were recorded from both eyes simultaneously with a gold wire electrode loops, placed on the corneal apex, with a drop of saline applied to the corneal surface for hydration during the testing procedure. […] The scotopic A-wave amplitude and B-wave amplitude were recorded and evaluated.

Sequence of calcitonin receptor-like receptor (CLR) in complex with receptor activity-modifying protein 1 (RAMP1) (Q16602 23-461): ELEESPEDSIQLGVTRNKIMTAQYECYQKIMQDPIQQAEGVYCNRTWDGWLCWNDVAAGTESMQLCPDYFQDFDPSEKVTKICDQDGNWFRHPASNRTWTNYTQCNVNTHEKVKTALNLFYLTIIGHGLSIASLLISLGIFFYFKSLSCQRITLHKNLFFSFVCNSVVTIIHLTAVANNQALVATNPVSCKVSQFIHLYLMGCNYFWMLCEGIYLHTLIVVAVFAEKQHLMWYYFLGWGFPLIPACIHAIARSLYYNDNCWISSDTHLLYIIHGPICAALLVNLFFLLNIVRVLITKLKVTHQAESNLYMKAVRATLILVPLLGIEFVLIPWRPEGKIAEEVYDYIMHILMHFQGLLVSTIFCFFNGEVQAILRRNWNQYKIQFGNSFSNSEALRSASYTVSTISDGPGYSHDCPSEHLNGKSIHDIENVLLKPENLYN
Sequence of calcitonin receptor-like receptor (CLR) in complex with receptor activity-modifying protein 1 (RAMP1) (O60894 27-148): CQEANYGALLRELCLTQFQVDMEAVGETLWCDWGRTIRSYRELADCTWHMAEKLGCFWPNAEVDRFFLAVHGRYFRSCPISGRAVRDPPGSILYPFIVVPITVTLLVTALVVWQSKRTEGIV

## CGRP8-37
[1]
  binding potency relative to CGRP (less potent): approximately 10 fold
  efficacy: lost all efficacy

## Endothelin-1 (CSCSSLMDKECVYFCHLDIIW; ends and bridges not checked; cysteine pairing not given here; UniProt P05305 53-73, looked up) [ET-1, vasoconstrictive peptide injected intravitreally to induce retinal ischemia]
[2]
  avg. max A-wave amplitude: 457±40 μV
  avg. max B-wave amplitude: 804±188 μV
